Results taken from ChEMBL document CHEMBL1154649, “Anti-HBV agents. Part 3: preliminary structure-activity relationships of tetra-acylalisol A derivatives as potent hepatitis B virus inhibitors” (Bioorg Med Chem Lett, 2009).

How the values were obtained:
Hepatitis B virus [1] = test: Antiviral activity against HBV assessed as inhibition of viral early antigen secretion; format: functional, organism-based
[2] = Cytotoxicity against human HepG2(2.2.15) cells; format: cell-based
[3] = Selectivity index, ratio of CC50 for human HepG2(2.2.15) cells to IC50 for HBV early antigen secretion; format: functional
Hepatitis B virus [4] = test: Antiviral activity against HBV assessed as inhibition of viral surface antigen secretion; format: functional, organism-based
[5] = Selectivity index, ratio of CC50 for human HepG2(2.2.15) cells to IC50 for HBV surface antigen secretion; format: functional

IC50 (Hepatitis B virus [1]) | IC50 (Hepatitis B virus [4]) | Compound | CC50 [2] | Ratio CC50/IC50 [3] | Ratio CC50/IC50 [5]
1500 µM | > 1900 µM | CC(=O)OC(C)(C)[C@H](OC(=O)C(C)C)[C@H](C[C@@H](C)C1=C2C[C@H](OC(=O)C(C)C)[C@H]3[C@@]4(C)CCC(=O)C(C)(C)[C@@H]4CC[C@]3(C)[C@@]2(C)CC1)OC(=O)C(C)C | > 1900 µM | >1.3 | 
> 1100 µM | > 1100 µM | C[C@H](C[C@H](OC(=O)c1cccc([N+](=O)[O-])c1)[C@@H](OC(=O)c1cccc([N+](=O)[O-])c1)C(C)(C)OC(=O)c1cccc([N+](=O)[O-])c1)C1=C2C[C@H](OC(=O)c3cccc([N+](=O)[O-])c3)[C@H]3[C@@]4(C)CCC(=O)C(C)(C)[C@@H]4CC[C@]3(C)[C@@]2(C)CC1 | > 1100 µM |  | 
1100 µM | > 1700 µM | C[C@H](C[C@H](OC(=O)c1ccccc1)[C@@H](OC(=O)c1ccccc1)C(C)(C)OC(=O)c1ccccc1)[C@]12CC[C@@]3(C)[C@@]1(C[C@H](OC(=O)c1ccccc1)[C@H]1[C@@]4(C)CCC(=O)C(C)(C)[C@@H]4CC[C@@]13C)O2 | > 1700 µM | >1.5 | 
> 1200 µM | > 1200 µM | C[C@H](C[C@H](OC(=O)/C=C/c1ccccc1)[C@@H](OC(=O)/C=C/c1ccccc1)C(C)(C)OC(=O)/C=C/c1ccccc1)C1=C2C[C@H](OC(=O)/C=C/c3ccccc3)[C@H]3[C@@]4(C)CCC(=O)C(C)(C)[C@@H]4CC[C@]3(C)[C@@]2(C)CC1 | > 1200 µM |  | 
> 1400 µM | > 1400 µM | C[C@H](C[C@H](OC(=O)c1ccccc1I)[C@@H](OC(=O)c1ccccc1I)C(C)(C)OC(=O)c1ccccc1I)C1=C2C[C@H](OC(=O)c3ccccc3I)[C@H]3[C@@]4(C)CCC(=O)C(C)(C)[C@@H]4CC[C@]3(C)[C@@]2(C)CC1 | > 1400 µM |  | 
> 1700 µM | > 1700 µM | CC(=O)OC(C)(C)[C@H](OC(=O)c1ccccc1)[C@H](C[C@@H](C)C1=C2C[C@H](OC(=O)c3ccccc3)[C@H]3[C@@]4(C)CCC(=O)C(C)(C)[C@@H]4CC[C@]3(C)[C@@]2(C)CC1)OC(=O)c1ccccc1 | > 1700 µM |  | 
> 1700 µM | > 1700 µM | C[C@H](C[C@H](OC(=O)CCC1CCCCC1)[C@@H](OC(=O)CCC1CCCCC1)C(C)(C)OC(=O)CCC1CCCCC1)C1=C2C[C@H](OC(=O)CCC3CCCCC3)[C@H]3[C@@]4(C)CCC(=O)C(C)(C)[C@@H]4CC[C@]3(C)[C@@]2(C)CC1 | > 1700 µM |  | 
> 1400 µM | > 1400 µM | C[C@H](C[C@H](OC(=O)/C=C/c1ccccc1Cl)[C@@H](OC(=O)/C=C/c1ccccc1Cl)C(C)(C)OC(=O)/C=C/c1ccccc1Cl)C1=C2C[C@H](OC(=O)/C=C/c3ccccc3Cl)[C@H]3[C@@]4(C)CCC(=O)C(C)(C)[C@@H]4CC[C@]3(C)[C@@]2(C)CC1 | > 1400 µM |  | 
> 1400 µM | 480 µM | C[C@H](C[C@H](OC(=O)c1ccc(Cl)cc1)[C@@H](OC(=O)c1ccc(Cl)cc1)C(C)(C)OC(=O)c1ccc(Cl)cc1)C1=C2C[C@H](OC(=O)c3ccc(Cl)cc3)[C@H]3[C@@]4(C)CCC(=O)C(C)(C)[C@@H]4CC[C@]3(C)[C@@]2(C)CC1 | > 1400 µM |  | >2.9
86 µM | 460 µM | CCC(=O)O[C@@H](C[C@@H](C)C1=C2C[C@H](OC(=O)CC)[C@H]3[C@@]4(C)CCC(=O)C(C)(C)[C@@H]4CC[C@]3(C)[C@@]2(C)CC1)[C@@H](OC(=O)CC)C(C)(C)OC(C)=O | > 1700 µM | >20 | >3.7
> 1000 µM | > 1000 µM | C[C@H](C[C@H](OC(=O)c1ccc(Cl)cc1Cl)[C@@H](OC(=O)c1ccc(Cl)cc1Cl)C(C)(C)OC(=O)c1ccc(Cl)cc1Cl)C1=C2C[C@H](OC(=O)c3ccc(Cl)cc3Cl)[C@H]3[C@@]4(C)CCC(=O)C(C)(C)[C@@H]4CC[C@]3(C)[C@@]2(C)CC1 | > 1000 µM |  | 
> 1400 µM | > 1400 µM | CCCCC(=O)O[C@@H](C[C@@H](C)C1=C2C[C@H](OC(=O)CCCC)[C@H]3[C@@]4(C)CCC(=O)C(C)(C)[C@@H]4CC[C@]3(C)[C@@]2(C)CC1)[C@@H](OC(=O)CCCC)C(C)(C)OC(=O)CCCC | > 1400 µM |  | 
> 1300 µM | > 1300 µM | C[C@H](C[C@H](OC(=O)CN1C(=O)c2ccccc2C1=O)[C@@H](OC(=O)CN1C(=O)c2ccccc2C1=O)C(C)(C)OC(=O)CN1C(=O)c2ccccc2C1=O)C1=C2C[C@H](OC(=O)CN3C(=O)c4ccccc4C3=O)[C@H]3[C@@]4(C)CCC(=O)C(C)(C)[C@@H]4CC[C@]3(C)[C@@]2(C)CC1 | > 1300 µM |  | 
22000 µM | 13000 µM | Nc1ccn([C@@H]2CS[C@H](CO)O2)c(=O)n1 [LAMIVUDINE] | 35000 µM | 1.6 | 2.7
> 1400 µM | > 1400 µM | C[C@H](C[C@H](OC(=O)c1ccccc1)[C@@H](OC(=O)c1ccccc1)C(C)(C)OC(=O)c1ccccc1)C1=C2C[C@H](OC(=O)c3ccccc3)[C@H]3[C@@]4(C)CCC(=O)C(C)(C)[C@@H]4CC[C@]3(C)[C@@]2(C)CC1 | > 1400 µM |  | 
> 2100 µM | > 2100 µM | C[C@H](C[C@H](OC(=O)C1CC1)[C@@H](OC(=O)C1CC1)C(C)(C)OC(=O)C1CC1)C1=C2C[C@H](OC(=O)C3CC3)[C@H]3[C@@]4(C)CCC(=O)C(C)(C)[C@@H]4CC[C@]3(C)[C@@]2(C)CC1 | > 2100 µM |  | 
> 51 µM | 20 µM | C[C@H](C[C@H](O[Si](C)(C)C)[C@@H](O[Si](C)(C)C)C(C)(C)O[Si](C)(C)C)C1=C2C[C@H](O[Si](C)(C)C)[C@H]3[C@@]4(C)CCC(=O)C(C)(C)[C@@H]4CC[C@]3(C)[C@@]2(C)CC1 | 51 µM | <1 | 2.5
61 µM | 46 µM | CC(=O)O[C@@H](C[C@@H](C)[C@]12CC[C@@]3(C)[C@@]1(C[C@H](OC(C)=O)[C@H]1[C@@]4(C)CCC(=O)C(C)(C)[C@@H]4CC[C@@]13C)O2)[C@@H](OC(C)=O)C(C)(C)OC(C)=O | > 4000 µM | >66 | >87
> 2000 µM | > 2000 µM | CC(C)CC(=O)O[C@@H](C[C@@H](C)C1=C2C[C@H](OC(=O)CC(C)C)[C@H]3[C@@]4(C)CCC(=O)C(C)(C)[C@@H]4CC[C@]3(C)[C@@]2(C)CC1)[C@@H](OC(=O)CC(C)C)C(C)(C)OC(=O)CC(C)C | > 2000 µM |  | 
18 µM | 14 µM | CCOCC(=O)OC(C)(C)[C@H](OC(C)=O)[C@H](C[C@@H](C)C1=C2C[C@H](OC(C)=O)[C@H]3[C@@]4(C)CCC(=O)C(C)(C)[C@@H]4CC[C@]3(C)[C@@]2(C)CC1)OC(C)=O | > 2800 µM | >156 | >200
> 1600 µM | > 1600 µM | CCCCCCCC(=O)O[C@@H](C[C@@H](C)C1=C2C[C@H](OC(=O)CCCCCCC)[C@H]3[C@@]4(C)CCC(=O)C(C)(C)[C@@H]4CC[C@]3(C)[C@@]2(C)CC1)[C@@H](OC(=O)CCCCCCC)C(C)(C)OC(=O)CCCCCCC | > 1600 µM |  | 
1300 µM | > 2200 µM | CCC(=O)O[C@@H](C[C@@H](C)[C@]12CC[C@@]3(C)[C@@]1(C[C@H](OC(=O)CC)[C@H]1[C@@]4(C)CCC(=O)C(C)(C)[C@@H]4CC[C@@]13C)O2)[C@@H](OC(=O)CC)C(C)(C)OC(=O)CC | > 2200 µM | >1.7 | 
> 1600 µM | > 1600 µM | C[C@H](C[C@H](OC(=O)[C@H]1CCC(=O)O1)[C@@H](OC(=O)[C@H]1CCC(=O)O1)C(C)(C)OC(=O)[C@@H]1CCC(=O)O1)C1=C2C[C@H](OC(=O)[C@@H]3CCC(=O)O3)[C@H]3[C@@]4(C)CCC(=O)C(C)(C)[C@@H]4CC[C@]3(C)[C@@]2(C)CC1 | > 1600 µM |  | 
> 1400 µM | > 1400 µM | C[C@H](C[C@H](OC(=O)COc1ccccc1)[C@@H](OC(=O)COc1ccccc1)C(C)(C)OC(=O)COc1ccccc1)C1=C2C[C@H](OC(=O)COc3ccccc3)[C@H]3[C@@]4(C)CCC(=O)C(C)(C)[C@@H]4CC[C@]3(C)[C@@]2(C)CC1 | > 1400 µM |  | 
> 1900 µM | 900 µM | CCC(=O)O[C@@H](C[C@@H](C)C1=C2C[C@H](OC(=O)CC)[C@H]3[C@@]4(C)CCC(=O)C(C)(C)[C@@H]4CC[C@]3(C)[C@@]2(C)CC1)[C@@H](OC(=O)CC)C(C)(C)OC(=O)CC | > 1900 µM |  | >2.1
1800 µM | > 1800 µM | CCCC(=O)O[C@@H](C[C@@H](C)C1=C2C[C@H](OC(=O)CCC)[C@H]3[C@@]4(C)CCC(=O)C(C)(C)[C@@H]4CC[C@]3(C)[C@@]2(C)CC1)[C@@H](OC(=O)CCC)C(C)(C)OC(=O)CCC | > 1800 µM |  | 
> 1200 µM | > 1200 µM | C[C@H](C[C@H](OC(=O)COc1cc(Cl)c(Cl)cc1Cl)[C@@H](OC(=O)COc1cc(Cl)c(Cl)cc1Cl)C(C)(C)OC(=O)COc1cc(Cl)c(Cl)cc1Cl)C1=C2C[C@H](OC(=O)COc3cc(Cl)c(Cl)cc3Cl)[C@H]3[C@@]4(C)CCC(=O)C(C)(C)[C@@H]4CC[C@]3(C)[C@@]2(C)CC1 | > 1200 µM |  | 
> 1900 µM | > 1900 µM | CCCC(=O)O[C@@H](C[C@@H](C)[C@]12CC[C@@]3(C)[C@@]1(C[C@H](OC(=O)CCC)[C@H]1[C@@]4(C)CCC(=O)C(C)(C)[C@@H]4CC[C@@]13C)O2)[C@@H](OC(=O)CCC)C(C)(C)OC(=O)CCC | > 1900 µM |  | 
280 µM | > 2100 µM | CC(=O)OC1=CC[C@@]2(C)[C@@H](CC[C@@]3(C)[C@H]2[C@@H](OC(C)=O)CC2=C([C@H](C)C[C@H](OC(C)=O)[C@@H](OC(C)=O)C(C)(C)OC(C)=O)CC[C@@]23C)C1(C)C | > 2100 µM | >7.5 | 
